In brackets after ≈: the same amount, converted by molar mass. Like-named read-outs stand apart in the source and are kept apart here. Marks after values point to notes of the source that are not given here.
Key:
S. aureus ATCC 25923 = assay: MIC, broth dilution, S. aureus; type: cell-based, Staphylococcus aureus; settings: Staphylococcus aureus, ATCC25923; S. aureus ATCC 25923, 18 h; read-out: MIC Sa
MRSA ATCC 43300 = assay: MIC, broth microdilution (CO-ADD), MRSA; type: cell-based, methicillin-resistant S. aureus; settings: Staphylococcus aureus, read-out: MIC MRSA
P. aeruginosa ATCC 27853 [1] = assay: MIC, broth dilution, P. aeruginosa; type: cell-based, Pseudomonas aeruginosa; settings: P. aeruginosa ATCC 27853, 18 h, read-out: MIC Pa
[2] = system: K. pneumoniae ATCC 700603; assay: MIC, broth microdilution (CO-ADD), K. pneumoniae; settings: top dose 32 µg/mL
[3] = Cytotoxicity assay (resazurin); type: cell-based; settings: human, HEK293 cells, mean n = 2
E. coli ATCC 25922 [4] = assay: Erythromycin potentiation against E. coli; type: cell-based, Escherichia coli; settings: erythromycin at 2 µg/mL (2.7 µM); for Erythro/Ec fold-change (intrinsic MIC / combination MIC): E. coli; for Erythro/Ec: concentration required to restore erythromycin activity (combination MIC): mean n = 3
Excerpt: (§1) These measurements were independently repeated in triplicate.

P. aeruginosa ATCC 27853 [5] = assay: Doxycycline potentiation against P. aeruginosa; type: cell-based, Pseudomonas aeruginosa; settings: doxycycline at 2 µg/mL (4.5 µM); for Dox/Pa fold-change (intrinsic MIC / combination MIC): P. aeruginosa ATCC 27853; for Dox/Pa: concentration required to restore doxycycline activity (combination MIC): P. aeruginosa ATCC 27853, mean n = 3
Excerpt: as §1

C. albicans ATCC 90028 = assay: Antifungal MIC (CO-ADD), C. albicans; type: cell-based; settings: Candida albicans, ATCC90028, top dose 32 µg/mL
Protocol: For the antifungal assay, fungi strains were cultured for 3 days on YPD agar at 30 °C. A yeast suspension of 1 × 10^6 to 5 × 10^6 CFU/mL was prepared from five colonies. These stock suspensions were diluted with a yeast nitrogen base (YNB) (Becton Dickinson, 233520, New South Wales, Australia) broth to a final concentration of 2.5 × 10^3 CFU/mL. […] The plates were covered and incubated at 35 °C for 36 h without shaking. C. albicans MICs were determined by measuring the absorbance at OD530. For C. neoformans, resazurin was added at a 0.006% final concentration to each well and incubated for a further 3 h before the MICs were determined by measuring the absorbance at OD570–600. […] Fluconazole was used as a positive fungal inhibitor standard for C. albicans and C. neoformans. […] The quality control (QC) of the assays was determined by the antimicrobial controls and the Z′-factor (using positive and negative controls).

E. coli ATCC 25922 [6] = assay: MIC, broth dilution, E. coli; type: cell-based, Escherichia coli; settings: E. coli ATCC 25922, 18 h
A. baumannii ATCC 19606 = assay: MIC, broth microdilution (CO-ADD), A. baumannii; type: cell-based, Acinetobacter baumannii
human red blood cells = assay: Hemolytic assay; type: cell-based; settings: 10% hemolytic activity, mean n = 2
Protocol: Human whole blood was washed three times with three volumes of 0.9% NaCl and then resuspended in the same solution to a concentration of 0.5 × 10^8 cells/mL, as determined by the manual cell count in a Neubauer hemocytometer. The washed cells were then added to the 384-well compound-containing plates for a final volume of 50 μL. After a 10 min shake on a plate shaker, the plates were then incubated for 1 h at 37 °C. After incubation, the plates were centrifuged at 1000× g for 10 min to pellet cells and debris; 25 μL of the supernatant was then transferred to a polystyrene 384-well assay plate. Hemolysis was determined by measuring the supernatant absorbance at […] (OD405). The absorbance was measured using a Tecan M1000 Pro monochromator plate reader. HC10 and HC50 (concentrations at 10% and 50% hemolysis, respectively) were calculated by a curve fitting the inhibition values vs. log (concentration) using a sigmoidal dose–response function with variable fitting values for the top, bottom, and slope.

[7] = MRSA ATCC 43300, top dose 32 µg/mL
[8] = Pseudomonas aeruginosa, ATCC27853
[9] = Acinetobacter baumannii, ATCC19606, top dose 32 µg/mL

Row | Compound | MIC (S. aureus ATCC 25923) | MIC (MRSA ATCC 43300; [7]) | MIC (P. aeruginosa ATCC 27853 [1]; [8]) | MIC Kp [2] | Erythro/Ec fold-change (intrinsic MIC / combination MIC) (E. coli ATCC 25922 [4]) | Erythro/Ec: concentration required to restore erythromycin activity (combination MIC) (E. coli ATCC 25922 [4]) | Dox/Pa fold-change (intrinsic MIC / combination MIC) (P. aeruginosa ATCC 27853 [5]) | Dox/Pa: concentration required to restore doxycycline activity (combination MIC) (P. aeruginosa ATCC 27853 [5]) | MIC (C. albicans ATCC 90028) | MIC (E. coli ATCC 25922 [6]; Escherichia coli, ATCC25922) | MIC (A. baumannii ATCC 19606; [9]) | IC50 at 20 h [3] | Hemolysis HC10 (human red blood cells) | MIC (MRSA ATCC 43300) | MIC (P. aeruginosa ATCC 27853 [1]) | MIC (E. coli ATCC 25922 [6]) | MIC (A. baumannii ATCC 19606; top dose 32 µg/mL)
1 | O=C(N[C@H](CO)[C@H](O)c1ccc([N+](=O)[O-])cc1)C(Cl)Cl [Chloramphenicol, reference compound] | 1.5 to 3 µM (≈ 0.485 to 0.969 µg/mL) |  |  |  |  |  |  |  |  |  |  |  |  |  |  |  | 
2 | O=C(NCCCNCCCCNCCCNC(=O)c1c[nH]c2ccccc12)c1c[nH]c2ccccc12 [Compound 12a] | 69.8 µM (≈ 34.1 µg/mL) | 22.3 µM (≈ 10.9 µg/mL) | > 279 µM | >45 ^j µM | 4 fold | 34.9 µM | > 8 fold | 34.9 µM | > 45 µM | 139 µM (≈ 67.9 µg/mL) | > 45 µM | > 45 µM | >45 µM |  |  |  | 
3 | COc1ccc2[nH]cc(C(=O)NCCCNCCCCNCCCNC(=O)c3c[nH]c4ccc(OC)cc34)c2c1 [Compound 14a] | 257 µM (≈ 141 µg/mL) | 10.3 µM (≈ 5.65 µg/mL) | > 257 µM | >41 µM | 1 fold | 257 µM | > 4 fold | 64.4 µM | > 41 µM | 257 µM (≈ 141 µg/mL) | > 41 µM | > 41 µM | >41 µM |  |  |  | 
4 | COc1ccc2[nH]cc(C(=O)NCCCNCCCCCCCNCCCNC(=O)c3c[nH]c4ccc(OC)cc34)c2c1.O=C(O)C(F)(F)F.O=C(O)C(F)(F)F [Compound 14c] | 122 µM | > 39 µM | > 244 µM | >39 µM | > 1 fold | 244 µM | > 4 fold | 61.1 µM | > 39 µM | > 244 µM | > 39 µM | > 39 µM | >39 µM |  |  |  | 
5 | [H]/N=C(/N)N[C@H]1[C@H](O)[C@@H](O)[C@H](O[C@@H]2O[C@@H](C)[C@](O)(C=O)[C@H]2O[C@@H]2O[C@@H](CO)[C@H](O)[C@@H](O)[C@@H]2NC)[C@@H](N/C(N)=N\[H])[C@@H]1O [Streptomycin, reference compound] | 21.5 µM (≈ 12.5 µg/mL) |  | 21.5 µM (≈ 12.5 µg/mL) |  |  |  |  |  |  | 21.5 µM (≈ 12.5 µg/mL) |  |  |  |  |  |  | 
6 | CN[C@H](CC(C)C)C(=O)N[C@H]1C(=O)N[C@@H](CC(N)=O)C(=O)N[C@H]2C(=O)N[C@H]3C(=O)N[C@H](C(=O)N[C@H](C(=O)O)c4cc(O)cc(O)c4-c4cc3ccc4O)[C@H](O)c3ccc(c(Cl)c3)Oc3cc2cc(c3O[C@@H]2O[C@H](CO)[C@@H](O)[C@H](O)[C@H]2O[C@H]2C[C@](C)(N)[C@H](O)[C@H](C)O2)Oc2ccc(cc2Cl)[C@H]1O [Vancomycin, reference compound] |  |  |  |  |  |  |  |  |  |  |  |  |  | 0.7 µM (≈ 1.01 µg/mL) |  |  | 
7 | C[C@H]1c2cccc(O)c2C(=O)C2=C(O)[C@]3(O)C(=O)C(C(N)=O)=C(O)[C@@H](N(C)C)[C@@H]3[C@@H](O)[C@@H]21 [doxycycline, reference compound] |  |  | 90 µM (≈ 40 µg/mL) |  |  |  |  |  |  |  |  |  |  |  |  |  | 
8 | CC[C@H]1OC(=O)[C@H](C)[C@@H](O[C@H]2C[C@@](C)(OC)[C@@H](O)[C@H](C)O2)[C@H](C)[C@@H](O[C@@H]2O[C@H](C)C[C@H](N(C)C)[C@H]2O)[C@](C)(O)C[C@@H](C)C(=O)[C@H](C)[C@@H](O)[C@]1(C)O [erythromycin, reference compound] |  |  |  |  |  |  |  |  |  | 174 µM (≈ 128 µg/mL) |  |  |  |  |  |  | 
9 | CC/C(=C(\c1ccccc1)c1ccc(OCCN(C)C)cc1)c1ccccc1 [tamoxifen, reference compound] |  |  |  |  |  |  |  |  |  |  |  | 24 µM |  |  |  |  | 
10 | Colistin [reference compound] |  |  |  | 0.2 µM |  |  |  |  |  |  |  |  |  |  | 1 µM | 2 µM | 0.2 µM

Further lines, with some results ahead:

Row | MIC (S. aureus ATCC 25923) | MIC (MRSA ATCC 43300; [7]) | MIC (P. aeruginosa ATCC 27853 [1]; [8]) | MIC Kp [2] | Erythro/Ec fold-change (intrinsic MIC / combination MIC) (E. coli ATCC 25922 [4]) | Erythro/Ec: concentration required to restore erythromycin activity (combination MIC) (E. coli ATCC 25922 [4]) | Dox/Pa fold-change (intrinsic MIC / combination MIC) (P. aeruginosa ATCC 27853 [5]) | Dox/Pa: concentration required to restore doxycycline activity (combination MIC) (P. aeruginosa ATCC 27853 [5]) | MIC (C. albicans ATCC 90028) | MIC (E. coli ATCC 25922 [6]; Escherichia coli, ATCC25922) | MIC (A. baumannii ATCC 19606; [9]) | Compound | IC50 at 20 h [3] | Hemolysis HC10 (human red blood cells) | MIC (MRSA ATCC 43300) | MIC (P. aeruginosa ATCC 27853 [1]) | MIC (E. coli ATCC 25922 [6]) | MIC (A. baumannii ATCC 19606; top dose 32 µg/mL)
11 | > 266 µM | > 43 µM | 266 µM (≈ 140 µg/mL) | >43 µM | 1 fold | > 266 µM | 1 fold | 266 µM | > 43 µM | > 266 µM | > 43 µM | O=C(NCCCNCCCCNCCCNC(=O)c1c[nH]c2c(F)cccc12)c1c[nH]c2c(F)cccc12 [Compound 16a] | > 43 µM | >43 µM |  |  |  | 
12 | 256 µM (≈ 141 µg/mL) | > 41 µM | > 256 µM | >41 µM | 2 fold | 128 µM | > 4 fold | 64.0 µM | > 41 µM | 256 µM (≈ 141 µg/mL) | > 41 µM | O=C(NCCCNCCCCCCNCCCNC(=O)c1c[nH]c2c(F)cccc12)c1c[nH]c2c(F)cccc12 [Compound 16b] | > 41 µM | >41 µM |  |  |  | 
13 | 129 µM (≈ 70.8 µg/mL) | 20.6 µM (≈ 11.3 µg/mL) | > 257 µM | >41 µM | 1 fold | > 257 µM | > 2 fold | 129 µM | > 41 µM | > 257 µM | > 41 µM | COc1cccc2c(C(=O)NCCCNCCCCNCCCNC(=O)c3c[nH]c4c(OC)cccc34)c[nH]c12 [Compound 17a] | > 41 µM | >41 µM |  |  |  | 
14 | 124 µM (≈ 71.5 µg/mL) | > 40 µM | > 248 µM | >40 µM | 1 fold | > 248 µM | 1 fold | > 248 µM | > 40 µM | 248 µM (≈ 143 µg/mL) | > 40 µM | COc1cccc2c(C(=O)NCCCNCCCCCCNCCCNC(=O)c3c[nH]c4c(OC)cccc34)c[nH]c12 [Compound 17b] | > 40 µM | >40 µM |  |  |  | 
